Assay results reported in patent publication US20090270435A1 (priority 2006, published 2009).

Columns and labels:
ACC1 from rat liver = target: T1, ACC1 from rat liver (Rattus norvegicus, UniProt P11497); test: Direct inhibition of ACC1 activity (14C-bicarbonate incorporation); type: biochemical; settings: ACC1 from rat liver
T1 construct: The livers (for ACC1 preparation) or skeletal muscle tissue (for ACC2 preparation) are removed; from tissue; host or cells: liver of male CD rats (fasted, then fed a high sucrose diet)
How it was run: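 ACC1 partially purified from livers of fasted/sucrose-refed male rats by PEG and ammonium sulfate fractionation, then preincubated 30 min at 37°C with 10 mM citrate and 1.0 mM MgCl2. Reaction ran 7 min at 37°C, stopped with HCl; acid-stable radioactivity counted by scintillation; HCl-first tubes served as blanks.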

[1] = system: hepatic fatty acid synthesis; test: Measurement of fatty acid synthesis inhibition in experimental animals ([2-14C]acetate into saponifiable lipids in liver); type: in vivo, Sprague Dawley rats; settings: Rattus norvegicus; for inhibition at 30 mg/kg: po, read-out: Percent Inhibition at 30 mg/kg
Source text: The ACC inhibitory activity of compounds of this invention, and the salts of such compounds, can be confirmed in vivo by evaluation of their ability to inhibit hepatic fatty acid production and to stimulate whole body fatty acid oxidation using methods based on standard procedures. For example, since ACC catalyzes the first committed step in the biosynthesis of fatty acids, the in vivo activity of these compounds can be confirmed by measuring the ability of the compounds of this invention, and the salts of such compounds, to prevent the formation of radio labeled fatty acids from radio labeled acetate in the livers of treated mammals.
[1] Measurement of fatty acid synthesis inhibition in experimental animals. Incorporation of [2-^14C]acetate into saponifyable lipids in the livers of mammals (e.g. CDI mice, C57BI/6J-ob/ob mice, Sprague Dawley rats (available from Charles River Boston, Mass. or Jackson Labs Bar Harbor, Me.)) can be measured essentially as previously described for assessment of hepatic sterol synthesis (Harwood et al, Biochem. Pharmacol, 40: 1281-1293, 1990; Harwood et al. Biochem. Pharmacol. 53: 839-864, 1997) with the following modifications to allow for assessment fatty acid synthesis. For example, Sprague Dawley rats are administered a 0.1 ml per 40 g body weight of an oral bolus of vehicle (e.g. water or 0.5% methylcellulose in water)±test compound. One to four hours after compound administration, animals receive an intraperitoneal injection of 0.5 ml of [2-^14C]acetate (64 μCi/ml; 57 mCi/mmol). One hour after radiolabel administration, animals are sacrificed by CO2 asphyxiation and two, 0.75 g liver pieces are removed and saponified at […]. for 120 minutes in 1.5 ml of 2.5 M NaOH. After saponification, 2.5 ml of absolute EtOH are added to each sample and the solutions are mixed and allowed to stand overnight. Petroleum ether, 4.8 ml, is then added to each sample and the mixtures are first shaken vigorously for 2 minutes then centrifuged at 1000×g in a bench-top Sorvall®9 for 5 minutes. The resultant petroleum ether layers, which contain the nonsaponifyable lipids (e.g. cholesterol, post-squalene cholesterol precursors and other non-saponifiable lipids), are removed and discarded. The remaining aqueous layer (containing fatty acid sodium salts) is acidified to pH<2 by addition of 0.6 ml of 12 M HCl and extracted two times with 4.8 ml of petroleum ether. The pooled organic fractions (containing protonated fatty acids) are transferred to liquid scintillation vials, dried under nitrogen, dissolved in 7 ml of Aqua sol liquid scintillation fluid, and assessed for radioactivity using a liquid scintillation counter. Inhibition of fatty acid synthesis by the test compound is expressed as the concentration required to reduce by 50% the dpm [2-^14C]acetate incorporated into saponifiable lipids during the 1 hour interval between radio labeled acetate injection and CO2 asphyxiation.
Some compounds of the present were evaluated for inhibition of fatty acid synthesis as described above. As shown below, these compounds were all observed to inhibit the synthesis of fatty acids in vivo.

[2] = target: T2, ACC2 from rat skeletal muscle (Rattus norvegicus, UniProt Q1HEC0); test: Direct inhibition of ACC2 activity (14C-bicarbonate incorporation); type: biochemical; settings: ACC2 from rat skeletal muscle
T2 construct: The livers (for ACC1 preparation) or skeletal muscle tissue (for ACC2 preparation) are removed; from tissue; host or cells: skeletal muscle of male CD rats (fasted, then fed a high sucrose diet)
Description: For example direct inhibition of ACC1 and ACC2 activity, for compounds of Formula (1) were determined using preparations of ACC1 from rat liver and ACC2 from rat skeletal muscle.
[1] Preparation of ACC1 and ACC2. ACC1 was obtained from rat liver and ACC2 was obtained from rat skeletal muscle based upon standard procedures such as those described by Thampy and Wakil (J. Biol. Chem. 260: 6318-6323; 1985) using the following method.
Male CD rats weighing 150-200 g are fasted for 2 days and then fed a high sucrose diet (AIN-76A rodent diet; Cat # D10001, Research Diets Inc., New Brunswick, N.J.), for 3 days at which time they are sacrificed by CO2 asphyxiation. The livers (for ACC1 preparation) or skeletal muscle tissue (for ACC2 preparation) are removed, rinsed in ice-cold phosphate-buffered saline (PBS), and homogenized in 5 volumes of homogenization buffer (50 mM potassium phosphate, pH 7.5, 10 mM EDTA, 10 mM 2-mercaptoethanol, 2 mM benzamidine, 0.2 mM phenylmethylsulfonylfluoride (PMSF), 5 mg/L each leupeptin, aprotinin, and antitrypsin) in a Waring® blender for 1 minute at 4° C. All subsequent operations are carried out at 4° C. The homogenate is made 3% with respect to polyethylene glycol (PEG) by the addition of 50% PEG solution and centrifuged at 20,000×g for 15 minutes. The resulting supernatant is adjusted to 5% PEG with the addition of 50% PEG solution and stirred for 5 minutes. The pellet (contains ACC activity) is collected by centrifugation at 20,000×g for 20 minutes, rinsed with Ice-cold doubly distilled water to remove excess PEG and re-suspended in one-fourth the original homogenate volume with homogenization buffer. Ammonium sulfate (200 g/liter) is slowly added with stirring. After 45 minutes the enzyme is collected by centrifugation for 30 minutes at 20,000×g, re-suspended in 10 ml of 50 mM HEPES, pH7.5, 0.1 mM DTT, 1.0 mM EDTA, and 10% glycerol and desalted on a Sephadex™ G-25 column (2.5 cm-x 50 cm) (Pharmacia, Piscataway N.J. now GE Healthcare) […] equilibrated with the same buffer. The desalted enzyme preparation is stored in aliquots at −70° C. Immediately prior to use, frozen ACC1 or ACC2 aliquots are thawed, diluted to 500 μg/ml in buffer containing 50 mM HEPES, pH7.5, 1.0 mM MgCl2, 10 mM tripotassium citrate, 2.0 mM dithiothreitol (DTT), and 0.75 mg/ml fatty acid-free bovine serum albumin (BSA) and pre-incubated at 37° C. for 30 minutes.
[2] Measurement of ACC inhibition. The procedures for measuring ACC1 inhibition and ACC2 inhibition are identical except for the source of the isozyme. For measurement of ACC activity and assessment of ACC inhibition, test compounds are dissolved in dimethylsulfoxide (DMSO) and 1 μL aliquots are placed in 0.5 ml polypropylene tubes. Control tubes contain 1 μL of DMSO alone. Tubes are incubated at 37° C. in a constant temperature water bath. […] The reaction is then initiated by the addition of 10 μL of preincubated ACC fraction prepared as described above. After 7 minutes the reaction is terminated by the addition of 50 μL of 6N HCl and a 150 μL aliquot of the reaction mixture is transferred to glass scintillation vials and evaporated to dryness at 90° C. for at least 1 hour. The dried vials are then cooled, 0.5 ml of water and 5.5 ml of Ready Safe liquid scintillation fluid (Beckman Coulter Inc., Fullerton, Calif.) are added, and the radioactivity is determined using a liquid scintillation counter. Tubes that received HCl before ACC served as blanks.
[3] Specificity for ACC1 vs ACC2 inhibition. The specificity of a compound for Inhibiting ACC1 vs ACC2 can be determined by comparing the concentration of test compound required to inhibit 50% of the activity contained in an aliquot of ACC1 as compared with the concentration of the same compound required to inhibit 50% of the activity of an aliquot of ACC2.

T2 sequence (Q1HEC0 17-2455): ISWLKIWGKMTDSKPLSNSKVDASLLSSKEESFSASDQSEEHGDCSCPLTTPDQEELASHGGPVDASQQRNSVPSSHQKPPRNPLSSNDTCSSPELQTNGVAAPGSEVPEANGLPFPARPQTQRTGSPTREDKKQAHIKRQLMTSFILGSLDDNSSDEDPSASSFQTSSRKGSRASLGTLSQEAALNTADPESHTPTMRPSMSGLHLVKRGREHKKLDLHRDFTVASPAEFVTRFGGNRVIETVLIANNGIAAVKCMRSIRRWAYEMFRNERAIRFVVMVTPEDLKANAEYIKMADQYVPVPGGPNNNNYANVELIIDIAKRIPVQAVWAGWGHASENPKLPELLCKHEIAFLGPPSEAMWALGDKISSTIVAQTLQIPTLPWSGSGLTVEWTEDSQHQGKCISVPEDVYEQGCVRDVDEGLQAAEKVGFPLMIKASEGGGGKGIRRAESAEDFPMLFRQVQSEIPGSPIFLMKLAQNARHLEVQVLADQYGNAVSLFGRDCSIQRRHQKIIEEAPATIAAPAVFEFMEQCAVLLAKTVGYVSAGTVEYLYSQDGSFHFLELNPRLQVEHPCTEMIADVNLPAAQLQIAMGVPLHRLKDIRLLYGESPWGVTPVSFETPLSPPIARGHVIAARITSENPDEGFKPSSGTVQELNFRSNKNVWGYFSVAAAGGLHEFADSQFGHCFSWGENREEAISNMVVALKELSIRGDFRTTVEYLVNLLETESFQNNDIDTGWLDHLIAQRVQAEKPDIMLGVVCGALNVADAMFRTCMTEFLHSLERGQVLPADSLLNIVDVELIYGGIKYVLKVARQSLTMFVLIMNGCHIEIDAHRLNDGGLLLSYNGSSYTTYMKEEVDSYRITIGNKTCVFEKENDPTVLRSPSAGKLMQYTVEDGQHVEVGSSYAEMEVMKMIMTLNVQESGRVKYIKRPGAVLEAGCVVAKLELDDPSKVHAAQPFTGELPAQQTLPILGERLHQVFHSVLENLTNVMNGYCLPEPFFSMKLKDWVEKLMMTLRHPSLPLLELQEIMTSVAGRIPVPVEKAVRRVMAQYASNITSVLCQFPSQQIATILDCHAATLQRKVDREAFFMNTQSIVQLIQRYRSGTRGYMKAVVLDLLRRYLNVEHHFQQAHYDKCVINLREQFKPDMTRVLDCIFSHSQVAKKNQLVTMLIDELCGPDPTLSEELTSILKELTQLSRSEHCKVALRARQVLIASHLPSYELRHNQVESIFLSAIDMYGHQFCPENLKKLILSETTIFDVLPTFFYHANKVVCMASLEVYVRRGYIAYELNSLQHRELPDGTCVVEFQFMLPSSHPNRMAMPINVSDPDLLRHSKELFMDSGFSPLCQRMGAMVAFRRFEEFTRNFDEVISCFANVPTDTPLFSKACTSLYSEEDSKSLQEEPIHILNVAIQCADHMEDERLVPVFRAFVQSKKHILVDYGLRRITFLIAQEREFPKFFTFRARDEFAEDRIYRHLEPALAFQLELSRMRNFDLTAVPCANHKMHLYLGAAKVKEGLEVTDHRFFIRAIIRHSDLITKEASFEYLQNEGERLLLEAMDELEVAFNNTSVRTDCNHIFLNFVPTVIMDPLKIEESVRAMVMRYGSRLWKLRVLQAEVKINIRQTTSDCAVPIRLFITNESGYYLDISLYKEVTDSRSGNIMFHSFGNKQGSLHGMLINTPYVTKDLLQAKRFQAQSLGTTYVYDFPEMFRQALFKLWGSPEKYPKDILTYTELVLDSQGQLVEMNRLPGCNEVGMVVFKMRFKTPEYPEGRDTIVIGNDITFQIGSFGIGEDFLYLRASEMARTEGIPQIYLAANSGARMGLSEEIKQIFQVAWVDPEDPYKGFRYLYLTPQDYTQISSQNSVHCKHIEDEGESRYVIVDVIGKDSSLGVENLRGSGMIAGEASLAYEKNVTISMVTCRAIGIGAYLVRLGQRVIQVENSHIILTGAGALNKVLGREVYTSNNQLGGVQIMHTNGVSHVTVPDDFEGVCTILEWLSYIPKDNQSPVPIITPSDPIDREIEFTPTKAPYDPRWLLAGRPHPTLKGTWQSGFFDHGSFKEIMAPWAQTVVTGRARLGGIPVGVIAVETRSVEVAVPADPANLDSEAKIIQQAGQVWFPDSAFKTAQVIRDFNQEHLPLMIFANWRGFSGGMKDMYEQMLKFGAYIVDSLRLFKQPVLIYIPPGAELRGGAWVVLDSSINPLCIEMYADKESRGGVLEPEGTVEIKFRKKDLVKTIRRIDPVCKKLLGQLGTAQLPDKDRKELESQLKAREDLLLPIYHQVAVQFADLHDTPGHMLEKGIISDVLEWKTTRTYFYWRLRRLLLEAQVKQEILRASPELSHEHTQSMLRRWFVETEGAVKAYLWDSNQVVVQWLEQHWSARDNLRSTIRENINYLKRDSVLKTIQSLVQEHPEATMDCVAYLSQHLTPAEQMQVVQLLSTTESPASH

IC50 (ACC1 from rat liver) [nM] | IC50 [2] [nM] | Structure (SMILES) | inhibition at 30 mg/kg [1] [%] | inhibition at 10 mg/kg ([1]; inhibition of fatty acid synthesis in vivo, 10 mg/kg, oral bolus, read-out: Percent Inhibition at 10 mg/kg) [%]
96.6 |  | Cc1cc(C(=O)N2CCC3(CC2)CC(=O)c2cc(Cl)c(F)cc2O3)cc2cn[nH]c12 [Ex. A21, 6-chloro-7-fluoro-1′-[(7-methyl-1H-indazol-5-yl)carbonyl]spiro[chromene-2,4′-piperidin]-4(3H)-one] | 59.5 | 
23.5 | 36.4 | Cc1cc2c(cc1C)C(=O)CC1(CCN(C(=O)c3cc(C)c4[nH]ncc4c3)CC1)O2 [Ex. A1, 6,7-dimethyl-1′-[(7-methyl-1H-indazol-5-yl)carbonyl]spiro-[chromene-2,4′-piperidin]-4(3H)-one] | 35.4 | 
55.1 |  | COc1ccc2c(c1)C(=O)CC1(CCN(C(=O)c3cc(C)c4[nH]ncc4c3)CC1)O2 [Ex. A16, 6-methoxy-1′-[(7-methyl-1H-indazol-5-yl)carbonyl]spiro[chromene-2,4′-piperidin]-4(3H)-one] | 83 | 68
